{
  "source": "patent US20260060947A1",
  "about": "(INSTITUT PASTEUR DE MONTEVIDEO, priority 2019, published 2026)",
  "key": {"NF-κB-p65 [1]": {"test_system": "NF-κB-p65", "test": "LPS-induced NF-κB-p65 nuclear translocation in BV2 cells (immunocytochemistry)", "assay_type": "cell-based, murine", "conditions": "BANA 10, 20, 30 μM, BA 30 μM or DMF for 3 hrs before LPS 100 ng/ml", "protocol": "The effect of BANA on nuclear translocation of NF-κB was studied by immunocytochemistry using murine microglia cell line BV2.\nCells were then treated with BANA (10, 20 and 30 μM) or B.A (30 μM) for 3 hrs. After treatment, cells were stimulated with LPS (100 ng/ml) for 30 minutes. Then, cells were washed and fixed with PFA 4% for 20 minutes at 4° C. and washed with PBS. Immunocytochemistry was performed as follows: cells were permeabilized using 0.5% Triton in PBS for 15 minutes, and then blocked using 5% of BSA for 1 h at room temperature. Rabbit anti-NF-κB-p65 (ab16502, 1/200) and mouse anti-CD11b (BD550219, 1/100) were incubated overnight at 4° C. After that, primary antibodies were removed, washed with PBS 3 times for 10 minutes, and Alexa-fluor-conjugated goat anti-rabbit or goat anti-mouse antibodies (1:1000) were incubated for 2 h at room temperature. After secondary antibodies were removed, cells were covered in glycerol mounting medium with 1/2000 DAPI staining. Cells were analyzed by confocal microscopy using a confocal ZEISS LSM 800. NF-κB-p65+ nuclei were counted and ratio of DAPI to NF-κB-p65 labeling was compared among groups. Data were analyzed using analyzing tools of ImageJ and GraphPad Prism 7 software."}, "[2]": {"test": "LC50 in cell culture of SOD1^G93A adult microglia", "assay_type": "cell-based", "conditions": "rat"}, "NF-κB-p65 [3]": {"test_system": "NF-κB-p65", "test": "LPS-induced NF-κB-p65 nuclear translocation in SOD1^G93A primary microglia", "assay_type": "cell-based, rat", "conditions": "BANA 10-30 μM before LPS", "protocol": "FIG. 8D: Confocal images show CD11b-positive SOD1^G93A primary microglia (grey) treated with BANA, BA or vehicle, before LPS stimulation. […] Nuclear NF-κB-p65 colocalizing with DAPI nuclear staining is denoted in yellow.\nNuclear NF-κB-p65 colocalizing with DAPI nuclear staining is denoted in yellow. […] Scale bar=20 μm. […] 2 replicates of 3 independent experiments.\nThe effects of BANA on LPS- or TNFα-induced NF-κB activation were also assayed in cell cultures of BV2 microglial cell line and primary adult microglia isolated from symptomatic SOD1^G93A rats, and HT-29 NF-κB reporter cell line, respectively."}, "SOD1^G93A rats": {"test_system": "SOD1^G93A rats", "test": "Immunohistochemical analysis of gliosis in the ventral horn of lumbar spinal cord", "assay_type": "in vivo, rat", "conditions": "15 days post-paralysis", "protocol": "After 15 days of treatment using 100 mg/kg/day of BANA, starting after paralysis onset, animals were deeply anesthetized and transcardial perfusion was performed with 0.9% saline and 4% paraformaldehyde in […] (pH 7.2-7.4). Fixed spinal cords were removed, post-fixed by PFA 4% immersion overnight, and then transverse sectioned (30 m) in a Leica cryostat. Serial sections were collected in 100 mM PBS for immunohistochemistry.\nAt least 4 rats were analyzed for each immunohistochemistry experiment. Three different conditions were studied as follows: 1) non-transgenic (NonTg) rats of 160-180 days; 2) transgenic SOD1^G93A rats of 195-210 days treated with vehicle (paralysis, 15 d-vehicle) and 3) transgenic SOD1^G93A rats of 195-210 days treated with 50 or 100 mg/kg/day of BANA during 15 days. After treatment animals were deeply anesthetized and transcardial perfusion was performed with paraformaldehyde 4% (v/v) in PBS pH=7.4. Fixed spinal cords were removed, post-fixed by immersion overnight in paraformaldehyde 4% (v/v) in PBS pH=7.4, and then transverse sectioned (30 m) in a Leica cryostat. Serial sections were collected in PBS pH=7.4 for immunohistochemistry.\nFree-floating sections were blocked and permeabilized for 1 hour at room temperature with 0.5% Triton X-100 and 5% BSA in PBS (pH=7.4), passed through washing buffered solutions, and incubated overnight at 4° C. in a solution of 0.5% Triton X-100 and BSA 1% in PBS (pH=7.4) containing the primary antibodies: mouse anti-GFAP (G3893 1:400), rabbit anti-GFAP (Sigma #G9269 1:400), mouse anti-S1000 (Sigma #S2532 1:400), rabbit anti-Iba1 (Wako #019-19741, 1:500), rabbit anti-ChAT (Choline acetyltransferase) (Millipore, #AB143, 1:300), mouse anti-CD68 (Abcam, #ab31630, 1:300), rabbit anti-CD34 (Abcam, #ab81289, 1:200), rabbit anti-Ki67 (Abcam, #ab66155, 1:300), rabbit anti-NF-κB-p65 (Abcam, #ab16502, 1:200), rabbit anti-Ki67 (Abcam, #ab16667, 1:200), rabbit anti-ubiquitin (Millipore, #05-1307, 1:200), mouse anti-nitrotyrosine (Millipore, #05233, 1:200), anti-VGlut-1 (SySy, #135-303, 1:300), anti-synaptophysin (Abcam, #206870, 1:300), anti-0111-Tubulin (Millipore, #MAB1637, 1:200).\nThe inventors assessed the effect of BANA on markers of neuroinflammation in the degenerating spinal cords. SOD1^G93A rats were treated daily with BANA (100 mg/kg) or vehicle at the onset of motor symptoms. After 15 days of treatment, rats were euthanized and spinal cords were dissected for immunohistological analysis.\nExperiments to assess the effect of BANA on markers of neuroinflammation in the degenerating spinal cords were conducted in rats. SOD1^G93A rats were treated with BANA (100 mg/kg/day) or vehicle at the onset of symptoms. After 15 days of treatment rats were euthanized and spinal cord was removed for histological analysis.\nMicrogliosis and astrogliosis were assessed by counting the expression intensity for the different markers in gray matter from the lumbar cord of non-transgenic, SOD1^G93A onset or symptomatic rats that were treated with either vehicle or BANA. The number of aberrant glial cells co-expressing the astrocytic markers GFAP and S1000 was assessed by counting the respective positive cells for both markers in gray matter from the lumbar cord of non-transgenic, SOD1^G93A onset or symptomatic rats that were treated with either vehicle or BANA. The analysis was performed in at least 10 histological sections per animal (three different rats for each condition) using the ImageJ software. Statistical studies were performed using statistical tools of GraphPad Prism 7 software. Descriptive statistics were used for each group, and Kruskal-Wallis analysis, followed by Dunn's comparison test, was used among groups. All results are presented as mean±SEM, with p<0.05 considered significant."}},
  "note": "“Also recorded” adds a separate entry of the source.",
  "data": [
    {"smiles": "O=C(O)c1ccc(/C=C/[N+](=O)[O-])cc1", "note": "[BANA, (E)-4-(2-nitrovinyl) benzoic acid]", "values": [
      {"measurement": "LPS-induced NF-κB-p65 nuclear translocation", "setting": "NF-κB-p65 [1]", "value": "potently prevented; also recorded: inhibits"},
      {"measurement": "CC50", "setting": "[2]", "value": 30, "unit": "µM"},
      {"measurement": "LPS-induced NF-κB-p65 nuclear translocation", "setting": "NF-κB-p65 [3]", "value": "inhibits; also recorded: potently prevented"},
      {"measurement": "astrogliosis (GFAP)", "setting": "SOD1^G93A rats; 50 mg/kg/day", "value": "failed to reduce"},
      {"measurement": "microgliosis (Iba1)", "setting": "SOD1^G93A rats; 50 mg/kg/day", "value": "significantly reduced"},
      {"measurement": "astrocytosis (GFAP staining)", "setting": "SOD1^G93A rats; 100 mg/kg/day, vs vehicle", "value": "significantly reduced"},
      {"measurement": "cell proliferation in the ventral horn (Ki67-positive nuclei)", "setting": "SOD1^G93A rats; 100 mg/kg/day, vs vehicle", "value": "decreased; also recorded: significantly reduced"},
      {"measurement": "emergence of aberrant glial cells (GFAP/S100β) in the surroundings of motor neurons", "setting": "SOD1^G93A rats; 100 mg/kg/day, vs vehicle", "value": "significantly reduced"},
      {"measurement": "microgliosis in the ventral horn (Iba1-, CD68-, CD34-positive cells)", "setting": "SOD1^G93A rats; 100 mg/kg/day, vs vehicle", "value": "significantly reduced"}
    ]}
  ]
}
